Reference: PubChem BioAssay (NCI)
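Values below derive from 48-hour exposures of cells grown in 96-well plates, with endpoints linearly interpolated between the two concentrations bracketing the appropriate inhibition level. TGI is the concentration that stops growth completely.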

Legend:
Assay in all cases: growth of human tumour cells (NCI), 48 h
[1] = test system: SN12C renal
[2] = test system: SNB-75 CNS
[3] = test system: OVCAR-3 ovarian
[4] = test system: HCC-2998 colon
[5] = test system: UACC-257 melanoma
[6] = test system: OVCAR-4 ovarian
[7] = test system: MALME-3M melanoma
[8] = test system: MDA-MB-231 breast
[9] = test system: U251 CNS
[10] = test system: PC-3 prostate
[11] = test system: CAKI-1 renal
[12] = test system: 786-0 renal
[13] = test system: UACC-62 melanoma
[14] = test system: MCF7 breast
[15] = test system: A549 NSCLC
[16] = test system: NCI-H23 lung
[17] = test system: SK-OV-3 ovarian
[18] = test system: NCI-H226 lung

SMILES	TGI [1]	TGI [2]	TGI [3]	TGI [4]	TGI [5]	TGI [6]	TGI [7]	TGI [8]	TGI [9]	TGI [10]	TGI [11]	TGI [12]	TGI [13]	TGI [14]	TGI [15]	TGI [16]	TGI [17]	TGI [18]
COC(=O)C1=CSC2(S1)C(C(=O)OC)=CSc1c2ssc1=Nc1ccccc1 (stereo not given)	4.3 µM	6.09 µM	> 100 µM	4.25 µM	7.26 µM	8.06 µM	4.95 µM	4.79 µM	10.1 µM	> 100 µM	32.9 µM	3.87 µM	3.52 µM	> 100 µM	14.6 µM	8.43 µM	9.9 µM	
O=C(NNC1=NCCN1)c1ccco1	> 100 µM	> 100 µM	> 100 µM	> 100 µM	> 100 µM	> 100 µM	> 100 µM	> 100 µM	> 100 µM	> 100 µM		> 100 µM	> 100 µM	> 100 µM	> 100 µM	> 100 µM	> 100 µM	> 100 µM
CCCCCC/C=C\CCCCCCCCCc1cccc(O)c1C(=O)O	> 100 µM	> 100 µM	> 100 µM	> 100 µM	> 100 µM	> 100 µM	> 100 µM	> 100 µM	> 100 µM	> 100 µM	> 100 µM	> 100 µM	> 100 µM	> 100 µM	> 100 µM	> 100 µM	> 100 µM	> 100 µM
Cc1ccc(/C=N/Nc2cnccn2)s1	> 100 µM	> 100 µM	> 100 µM	> 100 µM	> 100 µM	> 100 µM	> 100 µM	> 100 µM	> 100 µM	> 100 µM	> 100 µM	> 100 µM	> 100 µM	> 100 µM	> 100 µM	> 100 µM	> 100 µM	> 100 µM
N#Cc1c(N)oc(-c2cccc([N+](=O)[O-])c2)c1C#N	90.6 µM	98.2 µM		33.6 µM	48.9 µM		61.6 µM	> 100 µM	94.5 µM	> 100 µM	43.6 µM	68.3 µM	> 100 µM	> 100 µM	> 100 µM	44 µM	> 100 µM	> 100 µM
CCOC(=O)/C(C(=S)Nc1ccccc1)=C(/N)N1CCCC1	> 100 µM		> 100 µM	> 100 µM	> 100 µM	> 100 µM	> 100 µM	> 100 µM	> 100 µM	> 100 µM	> 100 µM	> 100 µM	> 100 µM	> 100 µM	> 100 µM	> 100 µM		> 100 µM
CCOC(=O)c1sc2c(c1OC(=O)c1cccs1)c(=O)n(-c1ccccc1)c(=S)n2-c1ccccc1	42 µM	> 100 µM	60.6 µM	36.5 µM	> 100 µM	27.5 µM	31.5 µM	41.8 µM	31.4 µM	31.8 µM	75.8 µM	24.4 µM	33.4 µM	69.1 µM	38.8 µM	46.5 µM	42.9 µM	48.7 µM
